Where a name gives a salt, the structure may show the parent alone. Read-outs that look alike come from different tables or passages of the source.
Legend:
[1] = at 30 μM; cited from earlier work
His-tagged Parp-1 = target: T1, His-tagged Parp-1 (Homo sapiens, UniProt P09874); assay: PARP-1 autoparsylation assay (HTRF); assay type: biochemical
T1 construct: purchased Enzo Life Sciences GmbH, Lörrach, Germany
Excerpt: Description of the PARP1 Assay
Biochemical Activity Testing of PARP-1: Autoparsylation Assay
The autoparsylation assay is run in two steps: the enzymatic reaction in which His-tagged Parp-1 transfers biotinylated ADP-ribose/ADP-ribose to itself from biotinylated NAD/NAD as co-substrate and the detection reaction where a time resolved FRET between cryptate labelled anti-His antibody bound to the His tag of the enzyme and Xlent® labelled-streptavidin bound the biotin-parsylation residue is analysed. The autoparsylation activity is detectable directly via the increase in HTRF signal.
The autoparsylation assay is performed as 384-well HTRF® (Cisbio, Codolet, France) assay format in Greiner low volume nb 384-well microtiter plates. 35 nM His-tagged Parp-1 (human, recombinant, Enzo Life Sciences GmbH, Lörrach, Germany) and a mixture of 125 nM bio-NAD (Biolog, Life science Inst., Bremen, Germany) and 800 nM NAD as co-substrate are incubated in a total volume of 6 μl (100 mM Tris/HCl, 4 mM Mg-chloride, 0.01% IGEPAL® CA630, 1 mM DTT, 0.5% DMSO, pH 8, 13 ng/μl activated DNA (BPS Bioscience, San Diego, US)) in the absence or presence of the test compound (10 dilution concentrations) for 150 min at 23° C. The reaction is stopped by the addition of 4 μl of the Stop/detection solution (70 nM SA-Xlent® (Cisbio, Codolet, France), 2.5 nM Anti-His-K® (Eu-labelled anti-His, Cisbio, Codolet, France) in 50 mM HEPES, 400 mM KF, 0.1% BSA, 20 mM EDTA, pH 7.0). After 1 h incubation at room temperature the HTRF iss measured with an Envision multimode reader (Perkin Elmer LAS Germany GmbH) at excitation wavelength 340 nm (laser mode) and emission wavelengths 615 nm and 665 nm. The ratio of the emission signals is determined. The full value used is the inhibitor-free reaction. The pharmacological zero value used is Olaparib (LClabs, Woburn, US) in a final concentration of 1 The inhibitory values (IC50) are determined using either the program Symyx Assay Explorer® or Condosseo® from GeneData.

[2] = target: T2, GST-tagged Tnks-1 (1023-1327 aa) (Homo sapiens, UniProt O95271); assay: TNKS1 activity ELISA (autoparsylation assay); assay type: biochemical
T2 construct: GST-tagged Tnks-1 (1023-1327 aa, prepared in-house); made in house
T2 sequence (O95271 1023-1327): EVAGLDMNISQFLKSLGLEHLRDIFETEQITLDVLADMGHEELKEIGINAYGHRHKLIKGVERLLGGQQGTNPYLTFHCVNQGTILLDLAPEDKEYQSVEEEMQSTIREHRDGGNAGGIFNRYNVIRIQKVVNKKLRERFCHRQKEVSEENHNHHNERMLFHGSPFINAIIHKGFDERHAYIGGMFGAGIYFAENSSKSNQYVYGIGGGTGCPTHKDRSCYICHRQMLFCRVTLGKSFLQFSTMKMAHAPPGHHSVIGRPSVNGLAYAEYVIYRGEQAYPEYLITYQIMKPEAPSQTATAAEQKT
Protocol: (§1) Description of the TNKS1 and TNKS2 ELISA Assay
(§2) Then the activity assay with biotinylated NAD is performed in the absence/presence of the compounds. During the enzymatic reaction GST tagged TNKS transfers biotinylated ADP-ribose to itself from biotinylated NAD as co-substrate. For the detection streptavidin-HRP conjugate is added that binds to the biotinylated TNKS and is thereby captured to the plates. The amount of biotinylated resp. autoparsylated TNKS is detected with a luminescence substrate for HRP. The level of the luminescence signal correlates directly with the amount of autoparsylated TNKS and therefore with activity of TNKS.
(§3) The activity ELISA is performed in 384 well Glutathione coated microtiter plates (Express capture Glutathione coated plate, Biocat, Heidelberg, Germany). The plates are pre-equilibrated with PBS. […] The plates are washed 3 times with PBS-Tween-20. The wells are blocked by incubation at room temperature for 20 minutes with 50 μl blocking buffer (PBS, 0.05% Tween-20, 0.5% BSA). Afterwards the plates are washed 3 times with PBS-Tween-20. […] The reaction is stopped by 3 times washing with PBS-Tween-20. For the detection 50 μl of 20 ng/μl Streptavidin, HRP conjugate (MoBiTec, Gottingen, Germany) in PBS/0.05% Tween-20/0.01% BSA are added and the plates are incubated for 30 minutes at room temperature. After three times washing with PBS-Tween-20 50 μl of SuperSignal ELISA Femto Maximum sensitivity substrate solution (ThermoFisherScientific (Pierce), Bonn, Germany) are added. Following a 1 minute incubation at room temperature luminescence signals are measured with an Envision multimode reader (Perkin Elmer LAS Germany GmbH) at 700 nm. The full value used is the inhibitor-free reaction. […] The inhibitory values (IC50) are determined using either the program Symyx Assay Explorer® or Condosseo® from GeneData.

[3] = target: T3, GST-tagged Tankyrase-1 (1023-1327 aa) (Homo sapiens, UniProt O95271); assay: biochemical; settings: read-out: IC50 tankyrase 1 (enzyme assay)
T3 construct: GST-tagged Tankyrase-1 (1023-1327 aa)
T3 sequence (O95271 1023-1327): as above
Excerpt: (§4) aq (aqueous), h (hour), g (gram), L (liter), mg (milligram), MHz (Megahertz), min. (minute), mm (millimeter), mmol (millimole), mM (millimolar), m.p. (melting point), eq (equivalent), mL (milliliter), L (microliter), ACN (acetonitrile), AcOH (acetic acid), CDCl3 (deuterated chloroform), CD3OD (deuterated methanol), CH3CN (acetonitrile), c-hex (cyclohexane), DCC (dicyclohexyl carbodiimide), DCM (dichloromethane), DIC (diisopropyl carbodiimide), DIEA (diisopropylethyl-amine), DMF (dimethylformamide), DMSO (dimethylsulfoxide), DMSO-d6 (deuterated dimethylsulfoxide), EDC (1-(3-dimethyl-amino-propyl)-3-ethylcarbodiimide), ESI (Electro-spray ionization), EtOAc (ethyl acetate), Et2O (diethyl ether), EtOH (ethanol), HATU (dimethylamino-([1,2,3]triazolo[4,5-b]pyridin-3-yloxy)-methylene]-dimethylammonium hexafluorophosphate), HPLC (High Performance Liquid Chromatography), i-PrOH (2-propanol), K2CO3 (potassium carbonate), LC (Liquid Chromatography), MeOH (methanol), MgSO4 (magnesium sulfate), MS (mass spectrometry), MTBE (Methyl tert-butyl ether), NaHCO3 (sodium bicarbonate), NaBH4 (sodium borohydride), NMM (N-methyl morpholine), NMR (Nuclear Magnetic Resonance), PyBOP (benzotriazole-1-yl-oxy-trispyrrolidino-phosphonium hexafluorophosphate), RT (room temperature), Rt (retention time), SPE (solid phase extraction), TBTU (2-(1-H-benzotriazole-1-yl)-1,1,3,3-tetramethyluromium tetrafluoro borate), TEA (triethylamine), TFA (trifluoroacetic acid), THF (tetrahydrofuran), TLC (Thin Layer Chromatography), UV (Ultraviolet). Description of the In Vitro Assays Abbreviations: GST=Glutathione-S-transferase FRET=Fluorescence resonance energy transfer HTRF®=(homogenous time resolved fluorescence) HEPES=4-(2-hydroxyethyl)-1-piperazine ethanesulfonic acid buffer DTT=Dithiothreitol BSA=bovine serum albumin CHAPS=detergent; CHAPS=3[(3-cholamidopropyl)dimethylammonio]-1-propanesulfonate Streptavidin-XLent® is a high grade streptavidin-XL665 conjugate for which the coupling conditions have been optimized to yield a conjugate with enhanced performances for some assays, particularly those requiring high sensitivity.
(§5) The autoparsylation assay is run in two steps: the enzymatic reaction in which GST-tagged Tankyrase-1, resp Tankyrase-2 transferred biotinylated ADP-ribose to itself from biotinylated NAD as co-substrate and the detection reaction where a time resolved FRET between cryptate labelled anti-GST bound to the GST tag of the enzyme and Xlent® labelled-streptavidin bound the biotin-parsylation residue is analysed. The autoparsylation activity was detectable directly via the increase in HTRF signal.
(§6) The autoparsylation assay is performed as 384-well HTRF® (Cisbio, Codolet, France) assay format in Greiner low volume nb 384-well microtiter plates and is used for high throughput screen. […] The reaction is stopped by the addition of 1 μl 50 mM EDTA solution. […] The ratio of the emission signals is determined. The full value used is the inhibitor-free reaction. […] The inhibitory values (IC50) are determined using either the program Symyx Assay Explorer® or Condosseo® from GeneData.

β-catenin = settings: by increasing the levels of the AXIN1 and AXIN2 proteins; cited from earlier work
DLD-1-cancer cells = settings: cited from earlier work
tankyrase 1/2 = assay: Cellular inhibition of tankyrase: increase of Axin2 level in DLD1 cells (Luminex); assay type: cell-based; settings: read-out: EC50 tankyrase 1/2 (cell assay), 24 hours
Protocol: Measurement of Cellular Inhibition of Tankyrase
Cells of the colon carcinoma cell line DLD1 are plated in 96 well plates with 1.5×10^4 cells per well. Next day, cells are treated with a serial dilution of test compound in seven steps as triplicates with a final DMSO concentration of 0.3%. After 24 hours, cells are lysed in lysis buffer (20 mM Tris/HCl pH 8.0, 150 mM NaCl, 1% NP40, 10% Glycerol) and lysates are cleared by centrifugation through a 96 well filter plate (0.65 μm). […] The amount of isolated Axin2 protein is determined in a Luminex^200 machine (Luminex Corporation) according to the manufacturer's instruction by counting 100 events per well. […] For analysis, the obtained data are normalized against the untreated solvent control and fitted for determination of the EC50 values using the Assay Explorer software (Accelrys).

[4] = target: GST-tagged Tankyrase-2 (873-1166 aa) (Homo sapiens, UniProt Q9H2K2); assay: biochemical
GST-tagged Tankyrase-2 (873-1166 aa), sequence (Q9H2K2 873-1166): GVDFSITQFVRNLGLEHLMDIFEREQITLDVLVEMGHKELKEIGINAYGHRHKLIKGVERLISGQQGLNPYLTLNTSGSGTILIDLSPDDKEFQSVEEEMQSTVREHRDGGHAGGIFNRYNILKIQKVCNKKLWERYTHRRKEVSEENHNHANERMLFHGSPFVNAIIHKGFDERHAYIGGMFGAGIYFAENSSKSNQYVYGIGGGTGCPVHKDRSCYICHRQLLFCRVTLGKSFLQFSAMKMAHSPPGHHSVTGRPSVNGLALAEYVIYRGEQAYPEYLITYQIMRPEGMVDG
Excerpt: as §4, §5, §6

[5] = target: GST-tagged Tnks-2 (873-1166 aa) (Homo sapiens, UniProt Q9H2K2); assay: biochemical
GST-tagged Tnks-2 (873-1166 aa), sequence (Q9H2K2 873-1166): as above
Protocol: as §1, §2, §3

T1 sequence (P09874 whole entry): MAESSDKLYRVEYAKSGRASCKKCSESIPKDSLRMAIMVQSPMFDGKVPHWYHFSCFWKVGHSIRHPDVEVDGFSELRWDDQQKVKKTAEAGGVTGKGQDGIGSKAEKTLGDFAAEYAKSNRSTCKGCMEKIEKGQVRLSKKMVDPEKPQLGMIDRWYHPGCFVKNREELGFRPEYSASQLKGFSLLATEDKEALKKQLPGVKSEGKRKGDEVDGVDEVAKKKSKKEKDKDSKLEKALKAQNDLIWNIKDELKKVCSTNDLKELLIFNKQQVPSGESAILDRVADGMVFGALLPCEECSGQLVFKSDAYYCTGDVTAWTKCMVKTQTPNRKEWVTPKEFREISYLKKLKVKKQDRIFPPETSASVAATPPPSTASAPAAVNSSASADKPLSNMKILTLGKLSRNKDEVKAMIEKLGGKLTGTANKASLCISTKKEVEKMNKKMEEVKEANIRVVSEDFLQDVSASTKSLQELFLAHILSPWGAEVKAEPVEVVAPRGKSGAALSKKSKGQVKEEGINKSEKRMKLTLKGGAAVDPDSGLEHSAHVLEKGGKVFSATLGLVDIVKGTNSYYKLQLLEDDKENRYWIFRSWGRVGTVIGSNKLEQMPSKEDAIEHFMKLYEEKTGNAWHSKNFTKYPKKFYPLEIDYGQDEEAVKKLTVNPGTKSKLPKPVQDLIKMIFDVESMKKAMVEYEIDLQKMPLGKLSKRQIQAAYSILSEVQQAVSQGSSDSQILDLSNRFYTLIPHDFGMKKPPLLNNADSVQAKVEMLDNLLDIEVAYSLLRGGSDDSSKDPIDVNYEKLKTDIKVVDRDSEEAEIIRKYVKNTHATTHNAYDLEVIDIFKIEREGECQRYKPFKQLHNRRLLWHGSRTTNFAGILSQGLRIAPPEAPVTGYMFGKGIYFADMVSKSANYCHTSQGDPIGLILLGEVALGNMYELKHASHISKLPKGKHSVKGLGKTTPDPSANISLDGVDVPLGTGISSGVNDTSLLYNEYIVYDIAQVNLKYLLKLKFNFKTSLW

O=c1[nH]c(-c2ccc3c(c2)OCO3)nc2ccccc12
cellular assay [1]: no effect

Cc1cc(F)cc2c(=O)[nH]c(-c3ccc(C4CCNCC4)cc3)nc12 [Compound A33, 6-fluoro-8-methyl-2-(4-piperidin-4-yl-phenyl)-3H-quinazolin-4-one hydrochloride]
IC50 (His-tagged Parp-1): 300 to 3000 nM | IC50 [2]: < 300 nM | IC50 [3]: < 300 nM

CC(C)(O)c1ccc(-c2nc3ccc(F)c(F)c3c(=O)[nH]2)cc1 [Compound A12, 5,6-difluoro-2-[4-(1-hydroxy-1-methyl-ethyl)phenyl]-3H-quinazolin-4-one]
IC50 (His-tagged Parp-1): 300 to 3000 nM | IC50 ([2]; read-out: IC50 TNKS1 ELISA): < 300 nM | IC50 [3]: < 300 nM

CC(C)(O)c1ccc(-c2nc3c(Cl)cccc3c(=O)[nH]2)cc1 [Compound A6, 8-chloro-2-[4-(1-hydroxy-1-methyl-ethyl)-phenyl]-3H-quinazolin-4-one]
IC50 (His-tagged Parp-1): 300 to 3000 nM | IC50 ([2]; read-out: IC50 TNKS1 ELISA): < 300 nM | IC50 [3]: < 300 nM

Oc1nc(-c2ccc(C(F)(F)F)cc2)nc2c1CSCC2 [XAV939]
Wnt-stimulated accumulation of β-catenin (β-catenin): blocked | growth of DLD-1-cancer cells (DLD-1-cancer cells): inhibits growth

CN1CCN(c2ccc(-c3nc4ccc(F)cc4c(=O)[nH]3)cc2)CC1 [Compound A10, 6-fluoro-2-[4-(4-methyl-piperazin-1-yl)-phenyl]-3H-quinazolin-4-one]
IC50 (His-tagged Parp-1): 300 to 3000 nM | IC50 ([2]; read-out: IC50 TNKS1 ELISA): < 300 nM | IC50 [3]: < 300 nM

CC(C)(C)c1ccc(-c2nc3ccc(F)cc3c(=O)[nH]2)cc1 [Compound A9, 2-(4-tert-butyl-phenyl)-6-fluoro-3H-quinazolin-4-one]
IC50 (His-tagged Parp-1): 3000 to 50000 nM | IC50 ([2]; read-out: IC50 TNKS1 ELISA): < 300 nM | IC50 [3]: < 300 nM

CC(C)(O)c1ccc(-c2nc3c(F)cccc3c(=O)[nH]2)cc1 [Compound A3, 8-fluoro-2-[4-(1-hydroxy-1-methyl-ethyl)-phenyl]-3H-quinazolin-4-one]
IC50 (His-tagged Parp-1): 300 to 3000 nM | IC50 ([2]; read-out: IC50 TNKS1 ELISA): < 300 nM | IC50 [3]: < 300 nM

Cc1cc(F)cc2c(=O)[nH]c(-c3ccc(N4CCCN(C)CC4)cc3)nc12 [Compound A32, 6-fluoro-8-methyl-2-[4-(4-methyl-[1,4]diazepan-1-yl)-phenyl]-3H-quinazolin-4-one]
EC50 (tankyrase 1/2): 300 to 3000 nM | IC50 [4]: 300 to 3000 nM | IC50 [3]: 300 to 3000 nM

Cc1cc(F)cc2c(=O)[nH]c(-c3ccc(N4CCS(=O)(=O)CC4)cc3)nc12 [Compound A30, 2-[4-(1,1-dioxo-1|6-thiomorpholin-4-yl)-phenyl]-6-fluoro-8-methyl-3H-quinazolin-4-one]
EC50 (tankyrase 1/2): < 300 nM | IC50 (His-tagged Parp-1): 300 to 3000 nM | IC50 [2]: < 300 nM | IC50 [4]: 300 to 3000 nM | IC50 [3]: 300 to 3000 nM | IC50 [5]: < 300 nM

CC(C)c1ccc(-c2nc3ccc(F)cc3c(=O)[nH]2)cc1 [Compound A22, 6-fluoro-2-(4-isopropyl-phenyl)-3H-quinazolin-4-one]
IC50 [4]: 300 to 3000 nM | IC50 [3]: 300 to 3000 nM

From patent publication US9388142B2, “Quinazolinone derivatives as PARP inhibitors” (MERCK PATENT GMBH, priority 2012, dated 2016)
